This passage reports IC50 results from patent US11766435B2, “N3-substituted iminopyrimidinones as antimalarial agents” (Merck Sharp & Dohme LLC, priority 2016, dated 2023).

Bounds are passed on as bounds.

This experiment deals with asexual P. falciparum 3D7 parasites. The experiment can be described thus: P. falciparum growth inhibition assay measuring LDH activity (Assay 1). Particulars: 3D7 strain, parasitized red blood cells, 72 h incubation, LDH activity read by absorbance at 650 nm. It counts as cell-based. On the procedure:
A modified version of the assay described in Gamo, F. J., Sanz, L. M., Vidal, J., de Cozar, C., Alvarez, E., Lavandera, J. L., Vanderwall, D. E., Green, D. V., Kumar, V., Hasan, S., Brown, J. R., Peishoff, C. E., Cardon, L. R., Garcia-Bustos, J. F., Nature, 465 (2010) 305-310 (Gamo et al.) was used to assess the activity of compounds against asexual P. falciparum 3D7 parasites. Compounds were pre-dispensed in 384-well plates, RPMI/AlbuMAX growth media was added and P. falciparum inoculated. Plates were incubated for 72 h and then frozen at −80° C. overnight. Lactate dehydrogenase (LDH) activity was quantified with the modified cofactor 3-acetylpyridine adenine dinucleotide (APAD) (Sigma Aldrich) by measuring absorbance of the tetrazolium indicator nitro blue tetrazolium (NBT) (Sigma Aldrich) at 650 nm.
An inoculum of synchronous P. falciparum (3D7 strain) parasitized red blood cells (PRBC) at 0.7% parasitaemia and 2% haematocrit in RPMI-1640, 5% AlbuMAX, 2% D-sucrose, 0.3% glutamine and 150 μM hypoxanthine was used for the assay.
Compound master plates (384-well) were prepared by a 10 pt serial dilution of compounds, from 1 mM to 50.8 nM, in columns 3-12 and 13-22. DMSO was dispensed into columns 1 and 23 of the compound master plate to be used as the positive growth control (100% viability). […] Intermediate compound dilution plates were prepared by dispensing 1 μl from each well of the compound master plate into 11.5 μl of RPMI/AlbuMAX growth media. Duplicate assay plates (384-well) were then prepared by dispensing 0.5 μL of compound from the intermediate dilution plates into 9.5 μl of RPMI/AlbuMAX growth media. The parasite inoculum (30 μL) was dispensed into the assay plates containing compounds using a Multidrop dispenser (Thermo Scientific) such that the final assay volume was 40 μL and final compound concentration was 1 μM-0.05 nM (the volume of compound addition can be adjusted to the preferred and agreed screening concentration). The final DMSO concentration was 0.1% (ideally 0.2% to limit toxicity to parasites), but this is dependent on volume of compound DMSO stock solution that can be supplied. Plates were incubated at 37° C. for 72 h in an atmosphere of 5% CO2, 5% O2, […].
After 72 h of incubation, plates were frozen at −80° C. overnight and then thawed at room temperature for at least 4 h. To evaluate LDH activity, 45 μL of freshly made reaction mix (174 mM sodium L-lactate (Sigma Aldrich), 214 μM 3-acetyl pyridine adenine dinucleotide (APAD) (Sigma Aldrich), 270 μM nitro blue tetrazolium chloride (NBT) (Sigma Aldrich), 4.35 U/mL diaphorase (from Clostridium kluyveri) (Sigma Aldrich), 0.7% Tween 20, 100 mM Tris-HCl pH 7.5) was dispensed using a Multidrop dispenser (Thermo Scientific). Plates were shaken to ensure mixing and absorbance at 650 nm was monitored using a Perkin Elmer Envision plate reader after 30 min of incubation at room temperature. Data were normalized to percent growth inhibition using positive and negative controls, and analysed using TIBCO Spotfire software. […]

Setting [1] is: Plasmodium falciparum, 3D7, Erythrocyte, 72 h.

Broadly, the IC50 is the concentration needed to halve the response being measured. In turn, `C[C@H](NC(=O)c1cc(F)cc(CN2C(=N)NC3(CCCCC3)CC2=O)c1)c1ccccc1` [Compound 33] gave an IC50 under setting [1] of 260 nM.

As to `N=C1N[C@](CC2CC2)(c2ccccc2)CC(=O)N1Cc1ccc(C(F)(F)F)c(C(=O)N2CCn3c(nnc3C(F)(F)F)C2)c1` [Compound 22], under setting [1], inhibition was half-maximal at 27.2 nM (IC50). Against the preceding molecule, the IC50 is about 9.6-fold lower.

Under setting [1], `CC(C)[C@]1(C)CC(=O)N(Cc2cc(F)cc(C(=O)N[C@H]3CCCc4ccccc43)c2)C(=N)N1` [Compound 4] returned an IC50 of 1.68 nM.

The molecule `COCC[C@H](NC(=O)c1cc(F)cc(CN2C(=N)NC3(CCCC3)CC2=O)c1)c1ccccc1` [Compound 9] gave an IC50 under setting [1] of 4.19 nM. Against the preceding molecule, the IC50 is about 2.5-fold higher.

Take `CC(C)[C@]1(C)CC(=O)N(Cc2ccc(C(=O)N3Cc4ccccc4C3)cc2)C(=N)N1` [Compound 47]: the IC50 under setting [1] came to 490 nM.

Consider `C[C@H](NC(=O)c1cccc(C(c2ccccc2)N2C(=N)NC(C)(C)CC2=O)c1)c1ccccc1` (single isomer, unassigned) [Compound 27], for which the IC50 amounted to 14 nM. In other words, the double-digit nanomolar range.

In turn, `CC(C)[C@]1(C)CC(=O)N(Cc2cc(F)cc(C(=O)N[C@@H](C)c3ccccc3)c2)C(=N)N1` [Compound 24] came in with an IC50 under setting [1] of 48.8 nM. This lies in the double-digit nanomolar range.

Regarding `CC(C)[C@]1(C)CC(=O)N(Cc2cc(F)cc(C(=O)N3Cc4ccccc4C3)c2)C(=N)N1` [Compound 35], under setting [1], the IC50 stood at 390 nM. This IC50 is about 8-fold higher than that of the molecule before.

With `CC(C)[C@]1(C)CC(=O)N([C@H](C)c2cccc(N3C[C@@H](c4ccccc4)CC3=O)c2)C(=N)N1` [Compound 16], 8.06 nM corresponded to half-maximal inhibition under setting [1] (IC50).

Regarding `C[C@H](NC(=O)c1cc(F)cc(CN2C(=N)NC3(CCCC3)CC2=O)c1)c1ccccc1` [Compound 32], under setting [1], inhibition was half-maximal at 500 nM (IC50).

`CC(C)[C@]1(C)CC(=O)N(C(c2ccccc2)c2cccc(C(=O)N[C@@H](C)c3ccccc3)c2)C(=N)N1` (some centres unmarked) [Compound 56] came in with an IC50 of 360 nM.

Molecule `C[C@H](NC(=O)c1cccc(C(c2ccccc2)N2C(=N)NC(C)(C)CC2=O)c1)c1ccccc1` (single isomer, unassigned) [Compound 28] yielded an IC50 of more than 1000 nM.

On to `CC(C)[C@]1(C)CC(=O)N(Cc2ccc(C(=O)N[C@@H](C)c3ccccc3)cc2)C(=N)N1` [Compound 40], for which, under setting [1], 630 nM corresponded to half-maximal inhibition (IC50).

Regarding `CCC1(CC)CC(=O)N(Cc2cc(F)cc(C(=O)N3Cc4ccccc4C3)c2)C(=N)N1` [Compound 50], the 50% inhibitory concentration (IC50) under setting [1] is 610 nM.

With `CC(C)[C@]1(C)CC(=O)N(Cc2cccc(N3C[C@@H](c4ccccc4)CC3=O)c2)C(=N)N1` [Compound 15], the IC50 under setting [1] came out at 7.74 nM. Against the preceding molecule, the IC50 is about 79-fold lower.

As to `CCC1(CC)CC(=O)N(Cc2cc(F)cc(C(=O)N(C)[C@@H](C)c3ccccc3)c2)C(=N)N1` [Compound 29], the IC50 under setting [1] amounted to 870 nM. Against the preceding molecule, the IC50 is about 110-fold higher.

`N=C1N[C@](CC2CC2)(c2ccccc2)CC(=O)N1Cc1ccc(Br)c(C(=O)N2Cc3nccnc3C2)c1` [Compound 12] yielded an IC50 under setting [1] of 6.01 nM.

As to `COCC[C@H](NC(=O)c1cc(F)cc(CN2C(=N)N[C@](C)(C(C)C)CC2=O)c1)c1ccccc1` [Compound 11], the IC50 under setting [1] amounted to 5.67 nM.

`CC(C)[C@]1(C)CC(=O)N(Cc2cc(F)cc(C(=O)N[C@H]3CCc4ccccc43)c2)C(=N)N1` [Compound 6] registered an IC50 under setting [1] of 2.92 nM.

For the molecule `C[C@H](NC(=O)c1cc(F)cc(CN2C(=N)NCC(c3ccccc3)C2=O)c1)c1ccccc1` (some centres unmarked) [Compound 49], the IC50 under setting [1] is 770 nM. This IC50 is about 260-fold higher than that of the molecule before.

`C[C@H](NC(=O)c1cc(F)cc(CN2C(=N)NC3(CCC3)CC2=O)c1)c1ccccc1` [Compound 39] displayed an IC50 under setting [1] of 1000 nM.

Under setting [1], `CC(C)[C@]1(C)CC(=O)N([C@H](C)c2cccc(C(=O)N[C@@H](C)c3cccc(Cl)c3)c2)C(=N)N1` [Compound 21] registered an IC50 of 19.9 nM.

`CCC1(CC)CC(=O)N(Cc2cc(F)cc(C(=O)N[C@@H](C)c3ccccc3)c2)C(=N)N1` [Compound 31] gave an IC50 under setting [1] of 94 nM. This IC50 lies about 4.7-fold higher than the previous one.

`C[C@H](NC(=O)c1cc(F)cc(CN2C(=N)NC3(CCC(C)(C)CC3)CC2=O)c1)c1ccccc1` [Compound 37]: half-maximal inhibition under setting [1] (IC50) required 620 nM.

`N=C1N[C@](CC2CC2)(c2ccccc2)CC(=O)N1Cc1ccc(-c2ccncc2)c(C(=O)N2Cc3nccnc3C2)c1` [Compound 7] registered a 50% inhibitory concentration (IC50) under setting [1] of 3.27 nM. This IC50 lies about 190-fold lower than the previous one.

Regarding `CC(C)[C@]1(C)CC(=O)N(Cc2cc(F)cc(C(=O)NC(CCN(C)C)c3ccccc3)c2)C(=N)N1` (some centres unmarked) [Compound 30], under setting [1], half-maximal inhibition (IC50) was put at 260 nM.

As to `CC(C)[C@]1(C)CC(=O)N(Cc2cc(F)cc(C(=O)NC(CCN(C)C)c3ccccc3)c2)C(=N)N1` (some centres unmarked) [Compound 34], half-maximal inhibition (IC50) required 310 nM.

For `N=C1N[C@](CC2CC2)(c2ccccc2)CC(=O)N1Cc1ccc(-c2ccccc2)c(C(=O)N2Cc3nccnc3C2)c1` [Compound 8], the IC50 under setting [1] turned out to be 3.42 nM.

Regarding `CC1(C)CC(=O)N(C(c2ccccc2)c2cccc(C(=O)N3Cc4ccccc4C3)c2)C(=N)N1` (centres unmarked) [Compound 54], 390 nM corresponded to half-maximal inhibition under setting [1] (IC50). This IC50 is about 110-fold higher than that of the molecule before.

On to `CC(C)[C@]1(C)CC(=O)N([C@H](C)c2cccc(N3C[C@H](c4ccccc4)CC3=O)c2)C(=N)N1` [Compound 20], for which, under setting [1], 14 nM corresponded to half-maximal inhibition (IC50).

As to `CC(C)[C@]1(C)CC(=O)N(Cc2ccc(C(=O)NCc3cccc(F)c3)cc2)C(=N)N1` [Compound 42], the IC50 under setting [1] came out at 480 nM.

Consider `CC(C)CC(c1ccc(C(F)(F)F)c(C(=O)N2Cc3nccnc3C2)c1)N1C(=N)N[C@](CC2CC2)(c2ccccc2)CC1=O` (some centres unmarked) [Compound 2], for which the IC50 under setting [1] worked out at 1.3 nM. Against the preceding molecule, the IC50 is about 370-fold lower.

As for `Cc1cccc(CNC(=O)c2ccc(CN3C(=N)N[C@](C)(C(C)C)CC3=O)cc2)c1` [Compound 45], the IC50 under setting [1] worked out at 810 nM.

With `CCC1(CC)CC(=O)N(Cc2cc(F)cc(C(=O)N3Cc4nccnc4C3)c2)C(=N)N1` [Compound 53], the IC50 under setting [1] stood at 870 nM.

Molecule `COCCC[C@H](NC(=O)c1cc(F)cc(CN2C(=N)N[C@](C)(C(C)C)CC2=O)c1)c1ccccc1` [Compound 14] showed an IC50 under setting [1] of 6.62 nM.

As for `CC(C)[C@]1(C)CC(=O)N(Cc2cc(F)cc(C(=O)N[C@H](C)c3ccccc3)c2)C(=N)N1` [Compound 23], the IC50 under setting [1] was 33 nM.

For `COCC[C@H](NC(=O)c1cc(Cl)cc(CN2C(=N)N[C@](C)(C(C)C)CC2=O)c1)c1ccccc1` [Compound 5], the IC50 under setting [1] came to 2.53 nM.

In the case of `C[C@@]1(c2c(F)cc(F)cc2F)CC(=O)N(Cc2cccc(C(=O)N3Cc4ccccc4C3)c2)C(=N)N1` [Compound 25], the IC50 under setting [1] was found to be 139 nM.

On to `CC(C)[C@]1(C)CC(=O)N(Cc2ccc(C(=O)N[C@@H](C)c3cccc(F)c3)s2)C(=N)N1` [Compound 3], for which the IC50 under setting [1] is 1.37 nM.

In turn, `Cc1ccccc1CNC(=O)c1ccc(CN2C(=N)N[C@](C)(C(C)C)CC2=O)cc1` [Compound 44] returned an IC50 under setting [1] of 320 nM.

With `C[C@H](NC(=O)c1cc(F)cc(CN2C(=N)NC(c3ccccc3)(c3ccccc3)CC2=O)c1)c1ccccc1` [Compound 38], the IC50 under setting [1] came to 570 nM.

Consider `CC(C)[C@]1(C)CC(=O)N(Cc2ccc(C(=O)NCc3ccccc3F)cc2)C(=N)N1` [Compound 41], for which the midpoint of inhibition under setting [1], the IC50, lay at 430 nM.

For the molecule `COCC[C@H](NC(=O)c1cc(F)cc(CN2C(=N)N[C@](C)(C(C)C)CC2=O)c1)c1ccc(F)cc1` [Compound 17], the IC50 under setting [1] was found to be 10.6 nM.

In the case of `CC(C)[C@]1(C)CC(=O)N(C(c2ccccc2)c2cccc(C(=O)N3Cc4ccccc4C3)c2)C(=N)N1` (some centres unmarked) [Compound 51], the IC50 under setting [1] came to 49 nM.

`CC(C)[C@]1(C)CC(=O)N([C@@H](C)c2cccc(N3C[C@H](c4ccccc4)CC3=O)c2)C(=N)N1` [Compound 26] yielded an IC50 under setting [1] of 371 nM.

For `CC(C)[C@]1(C)CC(=O)N(Cc2cc(F)cc(C(=O)NC3CCCCCC3)c2)C(=N)N1` [Compound 19], the midpoint of inhibition under setting [1], the IC50, lay at 14 nM.

In the case of `CC(C)[C@]1(C)CC(=O)N(C(c2ccccc2)c2cccc(C(=O)N3Cc4nccnc4C3)c2)C(=N)N1` (some centres unmarked) [Compound 52], 270 nM corresponded to half-maximal inhibition under setting [1] (IC50).

Under setting [1], `CC(C)[C@]1(C)CC(=O)N(Cc2ccc(C(=O)NCc3ccc(F)cc3)cc2)C(=N)N1` [Compound 43] returned an IC50 of 860 nM.

The molecule `Cc1ccc(CNC(=O)c2ccc(CN3C(=N)N[C@](C)(C(C)C)CC3=O)cc2)cc1` [Compound 46] had an IC50 under setting [1] of 550 nM. Against the preceding molecule, the IC50 is about 1.6-fold lower.

Regarding `CC(C)[C@]1(C)CC(=O)N(C(c2ccccc2)c2cccc(C(=O)N[C@@H](C)c3ccccc3)c2)C(=N)N1` (some centres unmarked) [Compound 55], the IC50 was 3.5 nM.
